# Experimental data: US6022495A, “Photochromic benzopyrano-fused naphthopyrans” (Transitions Optical, Inc., priority 1998, dated 2000)
# Assays:
# [1] = Visible lambda max of the activated form in polymer test squares (Varian Cary 3 UV-Visible spectrophotometer); format: physicochemical; conditions: activated (colored) form in test square of BPA 2EO DMA / poly(ethylene glycol) 600 dimethacrylate, 1.5×10^-3 molal
# Method: (§1) Testing was done with the photochromic compounds prepared in Examples 1-11 in the following manner. A quantity of each photochromic compound calculated to yield a 1.5×10^-3 molal solution was added to a flask containing 50 grams of a monomer blend of 4 parts ethoxylated bisphenol A dimethacrylate (BPA 2EO DMA), 1 part poly(ethylene glycol) 600 dimethacrylate, and 0.033 weight percent 2,2'-azobis(2-methyl propionitrile) (AIBN). Each photochromic compound was dissolved into the monomer blend by stirring and gentle heating. After a clear solution was obtained, it was poured into a flat sheet mold having the interior dimensions of 2.2 mm×6 inches (15.24 cm)×6 inches (15.24 cm). The mold was sealed and placed in a horizontal air flow, programmable oven programmed to increase the temperature from 40° C. to 95° C. over […], hold the temperature at 95° C. for 3 hours, lower it to 60° C. over a 2 hour interval and then hold at 60° C. for 16 hours. After the mold was opened, the polymer sheet was cut using a diamond blade saw into 2 inch (5.1 centimeters) test squares.
# The Δ OD/min, which represents the sensitivity of the photochromic compound's response to UV light, was measured over the first five (5) seconds of UV exposure, then expressed on a per minute basis. The saturation optical density (Δ OD@ Saturation) was taken under identical conditions as the Δ OD/min, except UV exposure was continued for 15 minutes. The lambda max (Vis) is the wavelength in nanometers (nm) in the visible spectrum at which the maximum absorption of the activated (colored) form of the photochromic compound in a test square occurs. The lambda max (Vis) wavelength was determined by testing the photochromic test square polymerizates of Part A in a Varian Cary 3 UV-Visible spectrophotometer. The Bleach Rate (T 1/2) is the time interval in seconds for the absorbance of the activated form of the photochromic compound in the test squares to reach one half the highest absorbance at room temperature (72° F., 22.20C.) after removal of the source of activating light.
# [2] = Photochromic response of polymer test squares on an optical bench; format: physicochemical; conditions: for ΔOD @ Saturation: UV exposure continued for 15 minutes; for ΔOD @ Saturation / Sensitivity ΔOD/min: 72° F. (22.2° C.); for Sensitivity ΔOD/min: first five (5) seconds of UV exposure, expressed per minute; for Bleach Rate T 1/2: time for absorbance of activated form to reach one half the highest absorbance at room temperature (72° F.) after removal of activating light
# Method: as §1
# The photochromic test squares prepared in Part A were tested for photochromic response on an optical bench. Prior to testing on the optical bench, the photochromic test squares were exposed to 365 nanometer ultraviolet light for about 15 minutes to activate the photochromic compounds and then placed in a 76° C. oven for about 15 minutes to bleach or inactivate the photochromic compounds. The test squares were then cooled to room temperature, exposed to fluorescent room lighting for at least 2 hours and then kept covered for at least 2 hours prior to testing on an optical bench maintained at 72° F. (22.2° C.). The bench was fitted with a 150 watt Xenon arc lamp, a remote controlled shutter, a copper sulfate bath acting as a heat sink for the arc lamp, a Schott WG-320 nm cut-off filter which removes short wavelength radiation; neutral density filter(s) and a sample holder in which the square to be tested was inserted. The power output of the optical bench, i.e., the dosage of light that the sample lens would be exposed to, was calibrated with a photochromic test square used as a reference standard. […] The UV-A detector was placed into the sample holder and the light output was measured. Adjustments to the power output were made by increasing or decreasing the lamp wattage or by adding or removing neutral density filters in the light path.
# A monitoring, collimated beam of light from a tungsten lamp was passed through the square at a small angle (approximately […]) normal to the square. After passing through the square, the light from the tungsten lamp was directed to a detector through Spectral Energy Corp. GM-200 monochromator set at the previously determined visible lambda max of the photochromic compound being measured. The output signals from the detector were processed by a radiometer.
# Change in optical density (ΔOD) was determined by inserting a test square in the bleached state into the sample holder, adjusting the transmittance scale to 100%, opening the shutter from the Xenon lamp to provide ultraviolet radiation to change the test square from the bleached state to an activated (i.e., darkened) state, measuring the transmittance in the activated state, and calculating the change in optical density according to the formula: ΔOD=log(100/% Ta), where % Ta is the percent transmittance in the activated state and the logarithm is to the base 10.
# The Δ OD/min, which represents the sensitivity of the photochromic compound's response to UV light, was measured over the first five (5) seconds of UV exposure, then expressed on a per minute basis. The saturation optical density (Δ OD@ Saturation) was taken under identical conditions as the Δ OD/min, except UV exposure was continued for 15 minutes. […]
lambda max (Vis) [1],ΔOD @ Saturation [2],Sensitivity ΔOD/min [2],Bleach Rate T 1/2 [2],Structure (SMILES)
493 nanometers,0.14,0.29 ΔOD/min,18 s,"COc1ccc(C2(c3ccc(OC)cc3)C=Cc3c(c4c5ccccc5c(=O)oc4c4ccccc34)O2)cc1 [Compound 1A, 2,2-bis(4-methoxyphenyl)-10-oxo-2,10-dihydro[2]benzopyrano[4',3':3,4]naphtho(2,1-b)pyran]"
478 nanometers,0.12,0.25 ΔOD/min,24 s,"COc1ccc(C2(c3ccc(OC)cc3)C=Cc3c(c4c5ccc(OC)cc5c(=O)oc4c4ccccc34)O2)cc1 [Compound 9A, 2,2-bis(4-methoxyphenyl)-12-methoxy-10-oxo-2,10-dihydro[2]benzopyrano[4',3':3,4]naphtho(2,1-b)pyran]"
